Measured values as given in patent publication EP0001940A1, “Derivatives of eburnamenine, their preparation and their therapeutical application” (SYNTHELABO, priority 1977, dated 1979).

Test system: souris de souche CDl
Experiment: Hypobaric anoxia survival time test (Anoxie hypobare)
Assay type: in vivo
Details: Mus musculus, ip; mean active dose = dose increasing survival time by 100% vs controls, determined graphically; mice, i.p. before the test; 190 mm Hg (5,25% oxygen); read-out: Anoxie hypobare DAM - i.p.
Text: Des souris de souche CDl sont maintenues dans une atmosphère appauvrie en oxygène, par réalisation d'un vide partiel (190mm de mercure correspondant à 5,25% d'oxygène).
Le temps de survie des animaux est noté. Ce temps est augmenté par les agents capables de favoriser l'oxygénation tissulaire et en particulier cérébrale. Les composés étudiés sont administrés, à plusieurs doses, par voie intrapéritonéale, […] avant l'essai. Les pourcentages d'augmentation du temps de survie par rapport aux valeurs obtenues chez les animaux témoins sont calculés. La dose active moyenne (DAM), dose qui augmente le temps de survie de 100% est déterminée graphiquement
Les résultats sont indiqués dans le tableau II suivant pour un nombre représentatif de composés.

| Compound | ED (100% increase in survival time) |
| --- | --- |
| CCC12CCCN3CCc4c(n(c5ccc(Br)cc45)C(C(=O)OC(C)C)C1)C32 (stereo not drawn) [compound 5] | 3 mg/kg |
| CCOC(=O)C1CC2(CC)CCCN3CCc4c(n1c1ccc(Br)cc41)C32 (stereo not drawn) [compound 4] | 1 mg/kg |
| CCOC(=O)C1(O)CC2(CC)CCCN3CCc4c(n1c1ccc(Br)cc41)C32 (stereo not drawn) [compound 14] | 3 mg/kg |
| CCOC(=O)C1=CC2(CC)CCCN3CCc4c(n1c1ccc(Br)cc41)C32 (stereo not drawn) [compound 18] | 7 mg/kg |
| CCOC(=O)C1CC2(CC)CCCN3CCc4c(n1c1cccc(Br)c41)C32 (stereo not drawn) [compound 3] | 8 mg/kg |
| CCC12CCCN3CCc4c(n(c5ccc(Br)cc45)C(C(=O)NC4CC4)C1)C32 (stereo not drawn) [compound 9] | 0.5 to 1 mg/kg |
| CCC12CCCN3CCc4c(n(c5ccc(Br)cc45)C(C(=O)NC)C1)C32 (stereo not drawn) [compound 7] | 2 mg/kg |
| CCC12CCCN3CCc4c(n(c5ccc(Br)cc45)C(C(N)=O)C1)C32 (stereo not drawn) [compound 6, Bromo-10 désoxyvincaminamide] | 1 mg/kg |
| CCCCOC(=O)C1(O)CC2(CC)CCCN3CCc4c(n1c1ccc(Br)cc41)C32 (stereo not drawn) [compound 13, bromo-10 vincaminate de n-butyle] | 3 to 4 mg/kg |
| CCC12CCCN3CCc4c(n(c5cccc(Br)c45)C(C(=O)OC)C1)C32 (stereo not drawn) [compound 1, bromo-9 désoxyvincamine] | 8 mg/kg |
| CCC12CCCN3CCc4c(n(c5ccc(Br)cc45)C(C(=O)OC)C1)C32 (stereo not drawn) [compound 2, bromo-10 désoxyvincamine] | 3 mg/kg |
| CCN(CC)C(=O)C1CC2(CC)CCCN3CCc4c(n1c1ccc(Br)cc41)C32 (stereo not drawn) [compound 8] | 4 mg/kg |
